Patent US20210005278A1, “SYSTEMS AND METHODS FOR PREDICTIVE NETWORK MODELING FOR COMPUTATIONAL SYSTEMS, BIOLOGY AND DRUG TARGET DISCOVERY” (ARIZONA BOARD OF REGENTS ON BEHALF OF THE UNIVERSITY OF …, priority 2018, published 2021)
Entries after “also recorded” stand apart in the source; their conditions may differ.

Experiments:
[1] = system: human SGBS preadipocytes; assay: Growth assay in human SGBS preadipocytes (crystal violet); assay type: cell-based; details: 12 to 14 days, 10 nM-10 uM
Description: (§1) After the treatment, the cells were fixed in cold methanol for 15 minutes and stained with crystal violet for 10 minutes. Dye excess was washed with water and pictures taken immediately afterwards.

[2] = system: human SKMCs (HMCL-7304); assay: Growth assay in human SKMCs (crystal violet); assay type: cell-based; details: 12 to 14 days, 10 nM-10 uM
Description: as §1

[3] = system: iPSC lines; assay: HMGCR inhibition in iPSC lines, RNA-seq differential expression; assay type: cell-based, human; details: 1 uM, 12 h
Description: Previous efforts have validated predictive networks through similar approaches.
For the expression residuals used for the co-expression and predictive network analyses, 2 analysis streams were adopted: one where there was use of all samples without adjusting for patient ID (AS) and one where there was an averaging of residuals per patient (ApP). Differentially expressed genes were determined using a linear model, as implemented in the 1mFit function from the limma package v3.18.13 in R. Statistical significance was assessed using a cut-off of 0.05 on FDR adjusted p-values.
iPSCs from 6 IS and 6 IR individuals were maintained in feeder-free conditions using mTesr1 (Stem Cell technologies, Inc) supplemented with 1 mM L-Glutamine, 1 mM Penicillin-Streptomycin, 0.1 μ/ml Fungizone.) on 5% matrigel coated 6-well TC plates. For passaging, cells were washed once with PBS and treated with pre-warmed 1 mM EDTA (Sigma), incubated at 37 degrees for 1-5 minutes, and resuspended in fresh mTesr1 medium 2 μM Thiazovivin (Millipore). After 12 hours incubation in Thiazovivin, medium was changed daily with fresh mTesr1. […] Cells were washed once in PBS and harvested for RNA extraction using PureLInk RNA mini kit (Thermo Fisher Scientific). Total RNA was quantified using a Nanodrop (Thermo Scientific). RNA samples with a A260/280 ratio <1.8 or >2.3 were excluded from further processing and the RNA was sequenced using the Illumina HiSeq 2500 system.

[4] = system: human adipocytes (differentiated SGBS cells); assay: Insulin mediated glucose uptake assay in mature human adipocytes (differentiated SGBS); assay type: cell-based; details: 24 hours pretreatment 10 nM-10 uM, 100 nM insulin stimulation
Description: For adipogenic differentiation SGBS cells were grown to confluence and subjected to a two-step differentiation process. […] Afterwards, cells were exposed to DMEM/F12 supplemented with 0.01 mg/mL of transferrin, […] of insulin, 100 nM cortisol, and 0.2 nM 3,3′,5-Triiodo-L-thyronine for additional 12 days. HMCL-7304 cells were differentiated in presence of SKMC differentiation medium (PromoCell) for 4-5 days before glucose uptake was performed. […] After the preincubation, the cells were starved for 2 hours prior to 30 minutes of 100 nM insulin stimulation at 37 degrees. […] The cells were then washed with PBS, harvested in 300 uL of M-PER lysis buffer (ThermoFisher), and then added to scintillation vials containing 4.75 mL of scintillation fluid (Perk Elmer). Radioactive counts were determined with a scintillation counter (Model ID: Beckman LS6500). Excess samples were subjected to BCA assay for protein quantification and normalization of radioactive counts. All samples were represented as fold change compared to the unstimulated (no insulin) condition.

[5] = system: SGBS cells; assay: Adipogenic differentiation assay (Oil Red O) in SGBS cells; assay type: cell-based, human; details: inhibitor added at day 0 of differentiation, 10 nM-10 uM
Description: For adipogenic differentiation SGBS cells were grown to confluence and subjected to a two-step differentiation process. […] Afterwards, cells were exposed to DMEM/F12 supplemented with 0.01 mg/mL of transferrin, […] of insulin, 100 nM cortisol, and 0.2 nM 3,3′,5-Triiodo-L-thyronine for additional 12 days. HMCL-7304 cells were differentiated in presence of SKMC differentiation medium (PromoCell) for 4-5 days before glucose uptake was performed. […] Differentiation quantification was performed with Oil Red 0. Differentiated SGBS cells were fixed with 10% formalin for 10 minutes at room temperature. After washing with 60% isopropanol, samples were incubated in Oil Red 0 (Sigma-Aldrich) for 10 minutes at room temperature. Oil Red 0 was eluted with 100% isopropanol for 10 minutes. The solution was then transferred into a 96-well plate and absorbance measured at 500nm.

| Structure (SMILES) | preadipocyte growth [1] | cell proliferation in SKMCs [2] | number of DE genes, treated vs untreated samples ([3]; IR iPSC group only) | number of DE genes, treated vs untreated samples ([3]; IS iPSC group only) | number of DE genes, treated vs untreated samples ([3]; all iPSC lines (6 IR, 6 IS)) | insulin mediated glucose uptake [4] | differentiation efficiency (adipogenesis, Oil Red O absorbance at 500 nm) [5] |
| --- | --- | --- | --- | --- | --- | --- | --- |
| NCCCC(O)(P(=O)(O)O)P(=O)(O)O [alendronate] | only HMGCR inhibition demonstrates a detectable decrease | only a significant effect on glucose uptake | – | – | – | – | – |
| CC(C)c1c(C(=O)Nc2ccccc2)c(-c2ccccc2)c(-c2ccc(F)cc2)n1CC[C@@H](O)C[C@@H](O)CC(=O)O [atorvastatin] | detectable decrease | inhibits; also recorded: affected | 785 | 711 | 3205 | – | – |
| CN(C/C=C/C#CC(C)(C)C)Cc1cccc2ccccc12 [terbinafine] | only HMGCR inhibition demonstrates a detectable decrease | only a significant effect on glucose uptake | – | – | – | decrease insulin mediated glucose uptake | only HMGCR inhibition demonstrates a detectable decrease |
